We go through 25 molecules from patent US20230141603A1, “BENZODIAZEPINE DERIVATIVES AS GABA A GAMMA1 PAM” (Hoffmann-La Roche Inc., priority 2021, published 2023).

The target in this assay is T1, h-GABAA α1β3γ2 (Homo sapiens, UniProt P14867+P18507).
T1 construct: expressed in transfected cells; host or cells: HEK293F cells, membranes
The assay can be described thus: Radioligand binding assay, [3H]Flumazenil competition, HEK293F membranes. The settings on record: for γ2/γ1 Selectivity Ratio: Ki α1β3γ2 (nM)/Ki α2β2γ1 (nM); for LogSel: Log[Ki α1β3γ2 (nM)/Ki α2β2γ1 (nM)]. As for the experimental part:
The affinity of compounds at GABAA γ2 subunit-containing receptors was measured by competition for [^3H]Flumazenil (81.1 Ci/mmol; Roche) binding to HEK293F cells expressing human (transiently transfected) receptors of composition α1β3γ2.
Harvested pellets from HEK293F cells expressing the different GABAA γ2 receptor subtypes were resuspended in Mannitol Buffer pH 7.2-7.4 and processed as described above for the cells expressing the GABAA γ1 subunit-containing receptors.
Assays were incubated to equilibrium for 1 hour at 4° C. and harvested onto GF/C uni-filters (Packard) by filtration using a Packard harvester and washing with ice-cold wash buffer (50 mM Tris; pH 7.5). After drying, filter-retained radioactivity was detected by liquid scintillation counting. Ki values were calculated using Excel-Fit (Microsoft) and are the means of two determinations.

As usually defined, the Ki is the equilibrium dissociation constant of an inhibitor or competing ligand from its target. A high value points to weaker binding. For the molecule `Cc1nnc2n1-c1ccc(Cl)c(Cl)c1C(c1ncccc1F)=NC2` [Example 71, 7,8-dichloro-6-(3-fluoro-2-pyridyl)-1-methyl-4H-[1,2,4]triazolo[4,3-a][1,4]benzodiazepine], affinity was put at a Ki of 1.08 µM. Moreover, for the setting “Table 1”, the “γ2/γ1 Selectivity Ratio” value is recorded as 28.7 and the LogSel worked out at 1.46.
Molecule `Fc1cccc(F)c1C1=NCc2nnc(-c3ccncn3)n2-c2ccc(Cl)c(Cl)c21` [Example 12, 7,8-dichloro-6-(2,6-difluorophenyl)-1-pyrimidin-4-yl-4H-[1,2,4]triazolo[4,3-a][1,4]benzodiazepine] registered an inhibitory constant (Ki) of 0.49 µM. Moreover, where the note is “Table 1”, the “γ2/γ1 Selectivity Ratio” value came out at 47.3 and the LogSel came to 1.67.
The matching figures for `Fc1cccnc1C1=NCc2nnc(-c3cccnn3)n2-c2ccc(Cl)c(Cl)c21` [Example 54, 7,8-dichloro-6-(3-fluoro-2-pyridyl)-1-pyridazin-3-yl-4H-[1,2,4]triazolo[4,3-a][1,4]benzodiazepine]: 2.07 µM, 68.7 and 1.84.
As for `Cc1nnc2n1-c1ccc(I)c(Cl)c1C(c1c(F)cccc1F)=NC2` [Example 41, 7-chloro-6-(2,6-difluorophenyl)-8-iodo-1-methyl-4H-[1,2,4]triazolo[4,3-a][1,4]benzodiazepine], the Ki amounted to 0.121 µM. Besides, for the setting “Table 1”, the “γ2/γ1 Selectivity Ratio” value is listed as 21.9 and the LogSel was 1.34.
In turn, `Fc1cccc(F)c1C1=NCc2nnc(-c3cccnn3)n2-c2ccc(Cl)c(Cl)c21` [Example 14, 7,8-dichloro-6-(2,6-difluorophenyl)-1-pyridazin-3-yl-4H-[1,2,4]triazolo[4,3-a][1,4]benzodiazepine] gave a Ki of 0.299 µM. Also, where the note is “Table 1”, the “γ2/γ1 Selectivity Ratio” value is listed as 86.6 and the LogSel amounted to 1.94. In addition, where the note is “Table 3”, the “γ2/γ1 Selectivity Ratio” value stood at 86.6 and the LogSel worked out at 1.9.
Turning to `Fc1ccccc1C1=NCc2nnc(-c3cccnn3)n2-c2ccc(C(F)(F)F)c(Cl)c21` [Example 27, 7-chloro-6-(2-fluorophenyl)-1-pyridazin-3-yl-8-(trifluoromethyl)-4H-[1,2,4]triazolo[4,3-a][1,4]benzodiazepine], the Ki was 4.8 µM. In addition, for the setting “Table 1”, the “γ2/γ1 Selectivity Ratio” value turned out to be 56.7 and the LogSel is 1.75.
Regarding `Cc1ccc2c(c1Cl)C(c1c(F)cccc1F)=NCc1nnc(C)n1-2` [Example 20, 7-chloro-6-(2,6-difluorophenyl)-1,8-dimethyl-4H-[1,2,4]triazolo[4,3-a][1,4]benzodiazepine], the affinity, expressed as Ki, was 0.289 µM. For the setting “Table 1”, the “γ2/γ1 Selectivity Ratio” value is recorded as 12.2 and the LogSel is reported as 1.09.
The matching figures for `Fc1cccc(F)c1C1=NCc2nnc(C3CCOCC3)n2-c2ccc(Cl)c(Cl)c21` [Example 11, 7,8-dichloro-6-(2,6-difluorophenyl)-1-tetrahydropyran-4-yl-4H-[1,2,4]triazolo[4,3-a][1,4]benzodiazepine]: 0.69 µM, 14.1 and 1.15.
As to `Cn1cc(-c2nnc3n2-c2ccc(Cl)c(Cl)c2C(c2c(F)cccc2F)=NC3)cn1` [Example 28, 7,8-dichloro-6-(2,6-difluorophenyl)-1-(1-methylpyrazol-4-yl)-4H-[1,2,4]triazolo[4,3-a][1,4]benzodiazepine], the Ki amounted to 0.293 µM. In addition, for the setting “Table 1”, the “γ2/γ1 Selectivity Ratio” value came out at 31.1 and the LogSel was 1.49.
The molecule `Fc1cccnc1C1=NCc2nnc(-c3ccncn3)n2-c2ccc(Cl)c(Cl)c21` [Example 55, 7,8-dichloro-6-(3-fluoro-2-pyridyl)-1-pyrimidin-4-yl-4H-[1,2,4]triazolo[4,3-a][1,4]benzodiazepine] gave a Ki of 1.72 µM. For the same molecule, where the note is “Table 1”, the “γ2/γ1 Selectivity Ratio” value is given as 92.9 and the LogSel turned out to be 1.97.
The matching figures for `Cc1ccc2c(c1Cl)C(c1c(F)cccc1F)=NCc1nnc(-c3ccncn3)n1-2` [Example 49, 7-chloro-6-(2,6-difluorophenyl)-8-methyl-1-pyrimidin-4-yl-4H-[1,2,4]triazolo[4,3-a][1,4]benzodiazepine]: 1.47 µM, 104.3 and 2.02.
In turn, `Fc1cccc(F)c1C1=NCc2nncn2-c2ccc(C(F)(F)F)c(Cl)c21` [Example 37, 7-chloro-6-(2,6-difluorophenyl)-8-(trifluoromethyl)-4H-[1,2,4]triazolo[4,3-a][1,4]benzodiazepine] gave a Ki of 1.18 µM. For the same molecule, for the setting “Table 1”, the “γ2/γ1 Selectivity Ratio” value was determined as 28.5 and the LogSel was 1.45.
In turn, `Cc1nnc2n1-c1ccc(C(F)F)c(Cl)c1C(c1c(F)cccc1F)=NC2` [Example 25, 7-chloro-8-(difluoromethyl)-6-(2,6-difluorophenyl)-1-methyl-4H-[1,2,4]triazolo[4,3-a][1,4]benzodiazepine] registered a Ki of 1.19 µM. Moreover, where the note is “Table 1”, the “γ2/γ1 Selectivity Ratio” value turned out to be 24.2 and the LogSel was found to be 1.38.
On to `Cc1nnc2n1-c1ccc(C(C)(F)F)c(Cl)c1C(c1c(F)cccc1F)=NC2` [Example 22, 7-chloro-8-(1,1-difluoroethyl)-6-(2,6-difluorophenyl)-1-methyl-4H-[1,2,4]triazolo[4,3-a][1,4]benzodiazepine], for which the Ki came to 2.79 µM. For the same molecule, where the note is “Table 1”, the “γ2/γ1 Selectivity Ratio” value stood at 74.6 and the LogSel is given as 1.87.
On to `Cc1ncc2n1-c1ccc(Cl)cc1C(c1ccccc1F)=NC2` [Midazolam, reference compound], for which the affinity corresponds to a Ki of 0.005 µM. For the same molecule, under “Table 3”, the LogSel is reported as −2.2.
Molecule `Fc1cccnc1C1=NCc2nncn2-c2ccc(Cl)c(Cl)c21` [Example 60, 7,8-dichloro-6-(3-fluoro-2-pyridyl)-4H-[1,2,4]triazolo[4,3-a][1,4]benzodiazepine] came in with a Ki of 1.11 µM. Also, where the note is “Table 1”, the “γ2/γ1 Selectivity Ratio” value is on record as 28.6 and the LogSel was 1.46.
For `O=c1[nH]nc2n1-c1ccc(Br)c(Cl)c1C(c1c(F)cccc1F)=NC2` [Example 13, 8-bromo-7-chloro-6-(2,6-difluorophenyl)-2,4-dihydro-[1,2,4]triazolo[4,3-a][1,4]benzodiazepin-1-one], the inhibition constant (Ki) was determined as 0.331 µM. Also, where the note is “Table 1”, the “γ2/γ1 Selectivity Ratio” value is listed as 53.5 and the LogSel is given as 1.73.
For `Fc1ccccc1C1=NCc2nncn2-c2ccc(Br)c(Cl)c21` [Example 8, 8-bromo-7-chloro-6-(2-fluorophenyl)-4H-[1,2,4]triazolo[4,3-a][1,4]benzodiazepine], in that order: 0.576 µM, 12.1 and 1.08.
For `COc1ccc2c(c1Cl)C(c1c(F)cccc1F)=NCc1nnc(C3CC3)n1-2` [Example 79, 7-chloro-1-cyclopropyl-6-(2,6-difluorophenyl)-8-methoxy-4H-[1,2,4]triazolo[4,3-a][1,4]benzodiazepine], the affinity, expressed as Ki, was 0.914 µM. Moreover, for the setting “Table 1”, the “γ2/γ1 Selectivity Ratio” value was 17.8 and the LogSel was found to be 1.25.
Regarding `COc1nnc2n1-c1ccc(Cl)c(Cl)c1C(c1c(F)cccc1F)=NC2` [Example 90, 7,8-dichloro-6-(2,6-difluorophenyl)-1-methoxy-4H-[1,2,4]triazolo[4,3-a][1,4]benzodiazepine], the Ki stood at 0.305 µM. Further, where the note is “Table 1”, the “γ2/γ1 Selectivity Ratio” value is reported as 52.8 and the LogSel came to 1.72.
Consider `Fc1cccc(F)c1C1=NCc2nncn2-c2ccc(C(F)F)c(Cl)c21` [Example 23, 7-chloro-8-(difluoromethyl)-6-(2,6-difluorophenyl)-4H-[1,2,4]triazolo[4,3-a][1,4]benzodiazepine], for which the Ki was found to be 1.2 µM. Under “Table 1”, the “γ2/γ1 Selectivity Ratio” value is listed as 22.0 and the LogSel was 1.34.
For `COc1ccc2c(c1Cl)C(c1c(F)cccc1F)=NCc1nnc(-c3ccncn3)n1-2` [Example 61, 7-chloro-6-(2,6-difluorophenyl)-8-methoxy-1-pyrimidin-4-yl-4H-[1,2,4]triazolo[4,3-a][1,4]benzodiazepine], the Ki was 2.14 µM. For the setting “Table 1”, the “γ2/γ1 Selectivity Ratio” value amounted to 27.6 and the LogSel is 1.44.
`COCCc1nnc2n1-c1ccc(Cl)c(Cl)c1C(c1c(F)cccc1F)=NC2` [Example 19, 7,8-dichloro-6-(2,6-difluorophenyl)-1-(2-methoxyethyl)-4H-[1,2,4]triazolo[4,3-a][1,4]benzodiazepine] came in with a Ki of 0.829 µM. Further, under “Table 1”, the “γ2/γ1 Selectivity Ratio” value stood at 31.9 and the LogSel amounted to 1.50.
Molecule `Cc1nnc2n1-c1ccc(C(F)(F)F)c(Cl)c1C(c1c(F)cccc1F)=NC2` [Example 40, 7-chloro-6-(2,6-difluorophenyl)-1-methyl-8-(trifluoromethyl)-4H-[1,2,4]triazolo[4,3-a][1,4]benzodiazepine] gave a Ki of 1.01 µM. Further, for the setting “Table 1”, the “γ2/γ1 Selectivity Ratio” value stood at 37.5 and the LogSel is 1.57. For the same molecule, where the note is “Table 3”, the “γ2/γ1 Selectivity Ratio” value was determined as 37.5 and the LogSel turned out to be 1.6.
In the case of `Cc1nnc2n1-c1ccc(Cl)c(Cl)c1C(c1ccccc1F)=NC2` [Example 4, 7,8-dichloro-6-(2-fluorophenyl)-1-methyl-4H-[1,2,4]triazolo[4,3-a][1,4]benzodiazepine], the inhibition constant Ki was 0.795 µM. For the same molecule, under “Table 1”, the “γ2/γ1 Selectivity Ratio” value came to 12.1 and the LogSel was determined as 1.08.
